Measurements taken from ChEMBL document CHEMBL1201862, “PubChem BioAssay data set” (2004).
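Cultured in 96-well plates, cells were exposed to test compound for 48 hours across five concentrations. At the GI50, growth is halved.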 Activity calls are given as the source filed them. Cut-off read from the data, not from the text of the source: active = GI50 up to about 1.1 µM and inactive = higher.

Assays:
Assay in all cases: NCI anticancer screen, dose series, 48 h
HL-60 = tested on: HL-60
HT-29 = tested on: HT-29
KM12 = tested on: KM12
Malme-3M = tested on: Malme-3M
NCI-H522 = tested on: NCI-H522
OVCAR-4 = tested on: OVCAR-4
SF-268 = tested on: SF-268
SK-MEL-2 = tested on: SK-MEL-2
SK-MEL-5 = tested on: SK-MEL-5
SR = tested on: SR
U-251 = tested on: U-251
UACC-257 = tested on: UACC-257
UACC-62 = tested on: UACC-62
UO-31 = tested on: UO-31
OVCAR-5 = tested on: OVCAR-5
SF-539 = tested on: SF-539

Measured: GI50

O=C(CSc1nnc(-c2ccc(/N=C\c3ccc(Cl)cc3)cc2)o1)Nc1ccccc1[N+](=O)[O-]
inactive: HL-60 > 100 µM | HT-29 > 100 µM | KM12 > 100 µM | Malme-3M > 100 µM | NCI-H522 > 100 µM | OVCAR-4 > 100 µM | SF-268 > 100 µM | SK-MEL-2 > 100 µM | SK-MEL-5 > 100 µM | SR > 100 µM | U-251 > 100 µM | UACC-257 > 100 µM | UACC-62 > 100 µM | UO-31 > 100 µM

CC1CC2C(=O)N(c3ccccc3)C(=O)C2c2c1c1ccccc1n2Cc1ccccc1 (centres undefined)
inactive: HL-60 10.5 µM | HT-29 > 100 µM | KM12 7.52 µM | Malme-3M > 100 µM | NCI-H522 17.7 µM | OVCAR-4 > 100 µM | OVCAR-5 > 100 µM | SF-268 > 100 µM | SF-539 > 100 µM | SK-MEL-2 > 100 µM | SK-MEL-5 > 100 µM | SR 27.2 µM | UACC-62 > 100 µM | UO-31 > 100 µM

CC(=O)OCC1OC(OC2CC3C(C)(C)C(OC(C)=O)CC[C@]3(C)C3CCC45CC4(CC[C@H]5C(C)CC(O)[C@@H](O)C(C)(C)O)[C@]23C)C(O)C(O)C1O (some centres undefined)
inactive: HL-60 3.5 µM | HT-29 8.05 µM | KM12 7.85 µM | Malme-3M 7.69 µM | NCI-H522 1.82 µM | OVCAR-4 6.67 µM | OVCAR-5 7.66 µM | SF-268 8.11 µM | SF-539 7.31 µM | SK-MEL-2 9.38 µM | SK-MEL-5 7.13 µM | U-251 6.28 µM | UACC-257 7.53 µM | UACC-62 6.25 µM | UO-31 6.38 µM

CCOC(=O)CC[C@H](NC(=O)c1nc[nH]c1[N+](=O)[O-])C(=O)OCC
inactive: HL-60 > 100 µM | KM12 > 100 µM | Malme-3M > 100 µM | NCI-H522 > 100 µM | OVCAR-4 > 100 µM | SF-268 > 100 µM | SF-539 > 100 µM | SK-MEL-2 > 100 µM | SR 35.7 µM | U-251 > 100 µM | UACC-257 > 100 µM | UACC-62 > 100 µM | UO-31 > 100 µM

NNC(=O)CCC(=O)NC1C2CC3CC(C2)CC1C3 (centres undefined)
inactive: HL-60 > 100 µM | HT-29 > 100 µM | KM12 > 100 µM | Malme-3M > 100 µM | NCI-H522 > 100 µM | OVCAR-4 > 100 µM | OVCAR-5 > 100 µM | SF-268 > 100 µM | SF-539 > 100 µM | SK-MEL-2 > 100 µM | SK-MEL-5 > 100 µM | U-251 > 100 µM | UACC-257 > 100 µM | UACC-62 > 100 µM | UO-31 > 100 µM

Cc1nn2c3c(nnc2c1C#N)C(=O)NN=C(N)S3
inactive: HL-60 > 100 µM | HT-29 > 100 µM | KM12 > 100 µM | Malme-3M > 100 µM | NCI-H522 > 100 µM | OVCAR-4 > 100 µM | OVCAR-5 > 100 µM | SF-268 > 100 µM | SF-539 > 100 µM | SK-MEL-5 > 100 µM | SR > 100 µM | U-251 > 100 µM | UACC-62 > 100 µM | UO-31 > 100 µM

Cc1nc2ccccc2c(=O)[nH]1
inactive: HL-60 > 100 µM | HT-29 > 100 µM | KM12 > 100 µM | Malme-3M > 100 µM | NCI-H522 > 100 µM | OVCAR-4 > 100 µM | OVCAR-5 > 100 µM | SF-268 > 100 µM | SF-539 > 100 µM | SK-MEL-2 > 100 µM | SK-MEL-5 > 100 µM | U-251 > 100 µM | UACC-257 > 100 µM | UACC-62 > 100 µM | UO-31 > 100 µM

C1=C(c2ccccc2)CN(c2ccccc2)OC1
inactive: HL-60 54.8 µM | HT-29 44.4 µM | KM12 > 100 µM | Malme-3M > 100 µM | NCI-H522 18.6 µM | OVCAR-4 > 10 µM | OVCAR-5 26.8 µM | SF-268 79.3 µM | SF-539 > 100 µM | SK-MEL-2 50.6 µM | SR 55.3 µM | U-251 > 100 µM | UACC-62 67.3 µM | UO-31 32.2 µM

c1ccc2c3c([nH]c2c1)C1(CCCCC1)c1c([nH]c2ccccc12)C31CCCCC1
inactive: HL-60 > 100 µM | HT-29 > 100 µM | KM12 > 100 µM | Malme-3M 23.1 µM | NCI-H522 30 µM | OVCAR-4 10.6 µM | OVCAR-5 > 100 µM | SF-268 23.6 µM | SK-MEL-2 18.8 µM | SK-MEL-5 26.2 µM | SR 22.1 µM | U-251 30.2 µM | UACC-257 50.4 µM | UACC-62 23.9 µM | UO-31 29 µM
